In ChEMBL document CHEMBL1146792, “Antimitotic activity of glaupalol-related coumarins from Glaucidium palmatum” (Bioorg Med Chem Lett, 2004) one finds IC50 data, which are given here for seven compounds.

In brackets after ≈: the same amount, converted by molar mass.

One assay has as its system KB. Nature of the assay: Compound was tested for cytotoxicity against human KB cells. Type of assay: functional, cell-based.
A further assay has as its target Tubulin alpha chain (Sus scrofa, UniProt P02550). Nature of the assay: Inhibition of the polymerization of tubulin. In kind it is functional.

Chain of Tubulin alpha chain (P02550 whole entry, looked up): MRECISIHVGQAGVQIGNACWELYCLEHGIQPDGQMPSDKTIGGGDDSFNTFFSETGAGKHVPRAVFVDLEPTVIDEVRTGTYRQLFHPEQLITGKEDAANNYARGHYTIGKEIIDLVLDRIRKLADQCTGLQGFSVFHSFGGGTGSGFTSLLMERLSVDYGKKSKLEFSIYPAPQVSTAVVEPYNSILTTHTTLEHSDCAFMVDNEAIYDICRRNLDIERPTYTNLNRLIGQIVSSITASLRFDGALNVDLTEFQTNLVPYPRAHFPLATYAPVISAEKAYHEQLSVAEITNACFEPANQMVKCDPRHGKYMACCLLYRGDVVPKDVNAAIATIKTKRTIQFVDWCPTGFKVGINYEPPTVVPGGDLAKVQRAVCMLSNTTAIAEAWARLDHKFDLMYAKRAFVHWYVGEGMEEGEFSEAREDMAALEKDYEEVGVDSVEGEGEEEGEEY

As for `Cc1c(O)ccc2oc(=O)c3c(c12)O[C@@H](C)[C@@]3(C)CO`, in the assay with KB, it took 5.7 mg/L (≈ 20.6 µM) to reach half-maximal inhibition (IC50).

For the compound `Cc1c(OC2O[C@H](CO)[C@@H](O)[C@H](O)[C@H]2O)ccc2oc(=O)c3c(c12)OC(C)C3(C)C` (single isomer, unassigned), half-maximal inhibition in the assay with KB (IC50) was put at 6.7 mg/L (≈ 15.9 µM).

Consider `Cc1c(O)ccc2oc(=O)c3c(c12)O[C@H](C)[C@@]3(C)CO`, for which, in the assay on KB, the IC50 – broadly, the midpoint of a concentration-inhibition curve – worked out at 4.3 mg/L (≈ 15.6 µM).

In the assay on KB, `COc1cc(=O)oc2ccc(O)c(C)c12` displayed a half-maximal inhibitory concentration (IC50) of 4.8 mg/L (≈ 23.3 µM).

For `Cc1c(O)ccc2oc(=O)c3c(c12)OC(C)C3(C)C` (centres undefined), the half-maximal inhibitory concentration (IC50) in the assay with KB amounted to 1.5 mg/L (≈ 5.76 µM).

`CC(=O)OC[C@@]1(C)c2c(c3c(C)c(O)ccc3oc2=O)O[C@@H]1C`: the IC50 in the assay on KB was 17 mg/L (≈ 53.4 µM); on Tubulin alpha chain, 30 µM.

Turning to `CC(=O)OC[C@@]1(C)c2c(c3c(C)c(O)ccc3oc2=O)O[C@H]1C`, the results for the IC50 in the assay on KB and at Tubulin alpha chain were 23 mg/L (≈ 72.3 µM) and 10 µM, respectively.
